Measured values as given in patent publication US20260373119A1, “NOVEL COMPOUND, AND COMPOSITION FOR PREVENTING OR TREATING HER2-POSITIVE CANCER, COMPRISING SAME” (EWHA UNIVERSITY - INDUSTRY COLLABORATION FOUNDATION, priority 2022, published 2026).

Legend:
Type in all cases: cell-based
[1] = target: T1, ELF3-MED23 protein-protein interaction (Homo sapiens, UniProt Q9ULK4); experiment: SEAP reporter assay, ELF3-MED23 PPI inhibition (293T kidney cells)
T1 construct: followed by the addition of either the candidate compound or MED23 protein constructs; endogenous in cells; host or cells: 293T kidney cells (MED23 endogenous; GAL4-ELF3 transfected)
T1 sequence (Q9ULK4 1-1368): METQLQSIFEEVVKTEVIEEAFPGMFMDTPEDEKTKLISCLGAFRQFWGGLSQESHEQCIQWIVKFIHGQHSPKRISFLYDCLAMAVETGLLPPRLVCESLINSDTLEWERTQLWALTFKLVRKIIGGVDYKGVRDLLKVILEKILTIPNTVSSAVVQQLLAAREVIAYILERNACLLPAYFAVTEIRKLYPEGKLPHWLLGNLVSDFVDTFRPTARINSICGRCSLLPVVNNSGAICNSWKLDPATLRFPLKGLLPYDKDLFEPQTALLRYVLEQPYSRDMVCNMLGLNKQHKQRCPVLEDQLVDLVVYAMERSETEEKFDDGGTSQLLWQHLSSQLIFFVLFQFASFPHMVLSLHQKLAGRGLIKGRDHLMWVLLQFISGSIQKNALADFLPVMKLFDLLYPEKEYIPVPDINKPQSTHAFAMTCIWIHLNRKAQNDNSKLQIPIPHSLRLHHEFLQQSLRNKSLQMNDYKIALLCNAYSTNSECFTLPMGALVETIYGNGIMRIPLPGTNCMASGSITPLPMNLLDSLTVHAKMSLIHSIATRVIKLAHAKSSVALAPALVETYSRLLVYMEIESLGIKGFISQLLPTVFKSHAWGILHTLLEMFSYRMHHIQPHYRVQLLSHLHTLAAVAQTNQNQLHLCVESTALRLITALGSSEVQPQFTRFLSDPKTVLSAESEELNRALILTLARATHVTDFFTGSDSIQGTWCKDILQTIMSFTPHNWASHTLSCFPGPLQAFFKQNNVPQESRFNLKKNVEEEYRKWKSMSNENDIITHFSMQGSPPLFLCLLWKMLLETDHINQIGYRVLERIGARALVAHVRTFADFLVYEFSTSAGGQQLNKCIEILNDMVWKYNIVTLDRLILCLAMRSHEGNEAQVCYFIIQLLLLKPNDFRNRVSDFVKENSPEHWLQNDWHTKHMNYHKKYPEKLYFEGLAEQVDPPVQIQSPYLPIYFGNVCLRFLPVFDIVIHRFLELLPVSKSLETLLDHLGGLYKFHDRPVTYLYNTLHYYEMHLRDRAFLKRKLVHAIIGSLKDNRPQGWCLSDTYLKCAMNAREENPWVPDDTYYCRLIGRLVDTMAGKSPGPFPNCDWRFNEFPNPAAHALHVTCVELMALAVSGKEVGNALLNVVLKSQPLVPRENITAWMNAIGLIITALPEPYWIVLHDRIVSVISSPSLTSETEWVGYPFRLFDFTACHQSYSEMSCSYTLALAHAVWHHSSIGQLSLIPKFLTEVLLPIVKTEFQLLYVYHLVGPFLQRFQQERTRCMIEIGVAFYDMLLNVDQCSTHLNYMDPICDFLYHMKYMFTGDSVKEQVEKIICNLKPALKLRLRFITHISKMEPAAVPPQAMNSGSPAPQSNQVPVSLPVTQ
Experimental: To verify whether the D400 and H449 residues play a critical role in the ELF3-MED23 protein-protein interaction, a SEAP assay was performed. Specifically, 293T kidney cells were seeded at a density of 5×10^3 cells/well in a 96-well microplate (SPL, Korea) and cultured overnight. Subsequently, the cells were co-transfected with 100 ng of each plasmid using transfection-optimized medium (Welgene, Korea). The plasmids used included the SEAP reporter gene (pG5IL2SX) and GAL4-ELF3 expression vector (pBJ GAL4-ELF3). For transfection, the cells were incubated with WelFectQ (Welgene, Korea) for 3 hours, followed by the addition of either the candidate compound or MED23 protein constructs (pcDNA MED23^WT, K397A, D400A, H449G, and D400A/H449G). The treated cells were incubated for 12 hours. The candidate compound was added in an incubator at 5% CO2 and 37 °C, and the plate was incubated at 65 °C for 3 hours to inactivate all enzymes except SEAP (Secreted Alkaline Phosphatase). A mixture comprising 100 μL of substrate solution prepared with 1.19 μL of 0.1 M 4-methylumbelliferyl phosphate (Sigma, USA), 25 μL of inactivated medium, and 75 μL of double-distilled water was added, followed by the addition of 98.81 μL of 2 M diethanolamine (pH 10, Sigma, USA). The plate was incubated overnight at 37 °C. Subsequently, the fluorescence intensity was measured using a fluorometer (SPECTRAmax […], Molecular Devices, USA) at an excitation wavelength of 360 nm and an emission wavelength of 440 nm.
To further elaborate on the above findings, small molecule compounds that could affect the ELF3-MED23 PPI were designed and synthesized. Specifically, non-essential side chains were removed from gefitnib, and compounds were designed to include both hydrogen bond donors and acceptors for the D400 and H449 residues of MED23, respectively (FIG. 4A). Specifically, chalcones and pyrazolines were selected as core scaffolds, and 25 compounds (11 chalcones and 14 pyrazoline-based compounds) were prepared. The ELF3-MED23 PPI inhibitory activity of all prepared compounds was measured using a SEAP assay.

MED23-ELK1 PPI = target: T2, MED23-ELK1 PPI (Homo sapiens, UniProt Q9ULK4); experiment: immunoprecipitation, MED23-ELK1 PPI
T2 construct: co-immunoprecipitation of ELK1, probably endogenous
Experimental: NCI-N87 cells from a gastric cancer cell line were seeded in a 100 mm cell culture dish and cultured until they reached 60-70% confluence. The cultured cells were transfected with p3Xflag-myc-CMV26-empty or p3Xflag-myc-CMV26-MED23^WT plasmids using Lipofectamine® 2000 (Invitrogen, USA). After transfection, YK1 (5 μM) was added 12 hours post-transfection, and the cells were cultured for 12 hours. A total of 750 μg of cell lysate was incubated with 20 μL of FLAG-agarose bead slurry (Sigma Aldrich, USA) on a rotator at 4 °C for 4 hours. The sample was centrifuged at 12,000 rpm for 1 minute to precipitate the beads. After removing the supernatant, the remaining beads were washed three times with 200 μL of lysis buffer (RIPA).
After removing the final supernatant, the beads were eluted by boiling with 2× sample buffer at 98 °C for 5 minutes. The immunoprecipitated proteins were loaded, separated by SDS-PAGE, and analyzed by Western blotting.

TZMB-resistant cells = experiment: treatment of TZMB-resistant cells; details: BT474 TR, NCI-N87 TR, JIMT-1
Experimental: The ability of the candidate compound to overcome trastuzumab resistance was evaluated.

For `CC(=O)N1N=C(c2cccc(O)c2)CC1c1ccc(Cl)cc1` (stereo not shown) [Compound 15, 1-[5-(4-Chlorophenyl)-3-(3-hydroxyphenyl)-4,5-dihydropyrazol-1-yl]-ethanone], the IC50 ([1]; ELF3-MED23 PPI) was 1180 ± 340 nM, the inhibition at 10 µM ([1]; HEK-293T, 10 μM) was 95% and the “PPI inhibitory effect on MED23-ELK1” value (MED23-ELK1 PPI) was “did not inhibit these PPIs”. For the same molecule, the “anticancer effect in TZMB-resistant cells” value (TZMB-resistant cells) was “significant anticancer effects not only in TZMB-sensitive cells but also in TZMB-resistant cells”.
